{
  "source": "patent US10626368B2",
  "about": "“Method for inducing cerebral cortex neurons” (KYOTO UNIVERSITY, priority 2015, dated 2020)",
  "system": "ES cells or the iPS cells",
  "assay": "Immunostaining for CoupTF1 and Ctip2 after 46 days of cerebral cortex differentiation",
  "type": "cell-based, human",
  "settings": "2 nM C59 as Wnt inhibitor, 46 days; compared with 500 ng/ml DKK1, 500 nM XAV",
  "description": "Human ES cells (KhES-1) were obtained from Institute for Frontier Medical Sciences, Kyoto University (Suemori H, et al. Biochem Biophys Res Commun. 345: 926-32, 2006). The human iPS cells 404C2 are cells obtained by introducing Oct3/4, Sox2, Klf4, L-MYC, LIN28 and p53shRNA into human fibroblasts, using an episomal vector, and these cells were obtained from Professor Yamanaka et al. in Kyoto University (Okita, et al, Nat Methods. 8: 409-412, 2011). The human iPS cells 836B1 are cells obtained by introducing Oct3/4, Sox2, Klf4, L-MYC, LIN28, GLIS1 and p53shRNA into human fibroblasts, using an episomal vector, and these cells were obtained from Professor Yamanaka et al. in Kyoto University. The ES cells and the iPS cells were cultured on SNL cells (Takahashi K, et al, Cell. 131: 861-872, 2007).\nOn the day before induction of differentiation, in order to separate the ES cells or the iPS cells, which had been cultured in a culture medium to which 10 μM Y-27632 (WAKO) had been added, from the SNL feeder cells, the SNL cells were removed with CTK and the remaining cells were then dissociated using Accumax (ICT). The cells were transferred on a 96-well plate (Lipidure-coat 96-well plate (NOF Corporation)) in an amount of 9×10^3 cells per well. Thereafter, the cells were subjected to a suspension culture in DMEM/F12 (WAKO) comprising 50 μM Y-27632 (WAKO), 10 μM SB43152 (Sigma), 10 ng/ml bFGF (Invitrogen), various types of Wnt inhibitors (DKK1 (R & D, 500 ng/ml), C59 (Cellagen Technology, 2-10 nM), XAV (Stemgent, 500 nM-2 μM) or IWP4 (Stemgent, 500 nM-2.5 μM)), LDN193189 (Stemgent), KSR (Invitrogen), 0.1 mM MEM non-essential amino acid (Invitrogen), 0.1 mM 2-mercaptoethanol (WAKO), and 2 mM L-Gln (Invitrogen) (initiation of differentiation induction, day 0). […]\nThe concentration of LDN193189 used in the above-described induction method was examined. […] Furthermore, the expression levels of the CoupTF1 and Sfrp1 genes were measured according to a qPCR method (FIG. 5C). […]",
  "data": [
    {"compound": "Cc1cc(-c2ccc(CC(=O)Nc3ccc(-c4cccnc4)cc3)cc2)ccn1", "note": "[C59]", "values": [
      {"measurement": "CoupTF1-negative Ctip2-positive cerebral cortex neurons induced", "result": "a large number"}
    ]}
  ]
}
